Test results reported in PubChem BioAssay AID248 (DTP/NCI, 2004).
Inconclusive results and toxic doses are left out. No stated cut-off is given here; in the data, active means T/C of 150% or more; inactive means T/C below 125%.

System: L1210 leukemia ip in BDF1 mice, survival T/C
Assay: NCI In Vivo Anticancer Drug Screen. Data for tumor model L1210 Leukemia (intraperitoneal) in B6D2F1 (BDF1) mice
Details: endpoint: mean survival time, higher = longer survival
In short: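 Survival endpoint. Drug-treated group vs vehicle group, expressed as T divided by C. Tumor passaged by transplantation.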

[1] = dose: 25.0 mg/kg/injection, schedule: Q01DX009 (ip), vehicle: Klucel (hydroxypropylcellulose) (HPC)
[2] = dose: 50.0 mg/kg/injection, schedule: Q01DX009 (ip), vehicle: Klucel (hydroxypropylcellulose) (HPC)
[3] = dose: 100.0 mg/kg/injection, schedule: Q01DX001 (ip), vehicle: carboxymethylcellulose (CMC)
[4] = dose: 200.0 mg/kg/injection, schedule: Q01DX001 (ip), vehicle: carboxymethylcellulose (CMC)
[5] = dose: 100.0 mg/kg/injection, schedule: Q04DX003 (ip), vehicle: saline
[6] = dose: 200.0 mg/kg/injection, schedule: Q04DX003 (ip), vehicle: saline
[7] = dose: 400.0 mg/kg/injection, schedule: Q04DX003 (ip), vehicle: saline
[8] = dose: 50.0 mg/kg/injection, schedule: Q01DX001 (ip), vehicle: Klucel (hydroxypropylcellulose) (HPC)
[9] = dose: 100.0 mg/kg/injection, schedule: Q01DX001 (ip), vehicle: Klucel (hydroxypropylcellulose) (HPC)
[10] = dose: 200.0 mg/kg/injection, schedule: Q01DX001 (ip), vehicle: Klucel (hydroxypropylcellulose) (HPC)
[11] = dose: 100.0 mg/kg/injection, schedule: Q01DX009 (ip), vehicle: saline with Tween-80
[12] = dose: 100.0 mg/kg/injection, schedule: Q01DX009 (ip), vehicle: saline
[13] = dose: 200.0 mg/kg/injection, schedule: Q01DX009 (ip), vehicle: saline
[14] = dose: 100.0 mg/kg/injection, schedule: Q01DX009 (ip), vehicle: Klucel (hydroxypropylcellulose) (HPC)
[15] = dose: 100.0 mg/kg/injection, schedule: Q04DX003 (ip), vehicle: Klucel (hydroxypropylcellulose) (HPC)
[16] = dose: 200.0 mg/kg/injection, schedule: Q01DX009 (ip), vehicle: Klucel (hydroxypropylcellulose) (HPC)
[17] = dose: 200.0 mg/kg/injection, schedule: Q04DX003 (ip), vehicle: Klucel (hydroxypropylcellulose) (HPC)
[18] = dose: 400.0 mg/kg/injection, schedule: Q01DX009 (ip), vehicle: Klucel (hydroxypropylcellulose) (HPC)
[19] = dose: 400.0 mg/kg/injection, schedule: Q04DX003 (ip), vehicle: Klucel (hydroxypropylcellulose) (HPC)
[20] = dose: 50.0 mg/kg/injection, schedule: Q01DX009 (ip), vehicle: saline

Measured: T/C

NC(=O)N1C(c2ccccc2)C1c1ccccc1 (centres undefined)
inactive: dose: 12.5 mg/kg/injection, schedule: Q01DX009 (ip), vehicle: Klucel (hydroxypropylcellulose) (HPC) 100 % of control | dose: 12.5 mg/kg/injection, schedule: Q04DX003 (ip), vehicle: Klucel (hydroxypropylcellulose) (HPC) 93 % of control | [1] 97 % of control | dose: 25.0 mg/kg/injection, schedule: Q04DX003 (ip), vehicle: Klucel (hydroxypropylcellulose) (HPC) 100 % of control | [2] 100 % of control | dose: 50.0 mg/kg/injection, schedule: Q04DX003 (ip), vehicle: Klucel (hydroxypropylcellulose) (HPC) 92 % of control

CC1c2ncnc(N)c2CN1C(=O)c1ccccc1 (centres undefined)
inactive: [3] 98 % of control | [4] 98 % of control

NC(C(=O)O)C(=O)c1ccccc1 (centres undefined)
inactive: dose: 100.0 mg/kg/injection, schedule: Q01DX009 (ip), vehicle: saline sonified 101 % of control | [5] 102 % of control | dose: 200.0 mg/kg/injection, schedule: Q01DX009 (ip), vehicle: saline sonified 101 % of control | [6] 112 % of control | dose: 400.0 mg/kg/injection, schedule: Q01DX009 (ip), vehicle: saline sonified 106 % of control | [7] 100 % of control

Cc1cccc2c1NC(c1ccccc1)C(C)S2(=O)=O (centres undefined)
inactive: [8] 106 % of control | [9] 96 % of control | [10] 102 % of control | dose: 400.0 mg/kg/injection, schedule: Q01DX001 (ip), vehicle: Klucel (hydroxypropylcellulose) (HPC) 96 % of control

Nc1nc(N)c(-c2ccc(Cl)c(Cl)c2)c(CCc2ccc(CNC(=O)c3cc(S(=O)(=O)F)ccc3Cl)cc2)n1
inactive: dose: 100.0 mg/kg/injection, schedule: Q01DX001 (ip), vehicle: saline with Tween-80 97 % of control | dose: 200.0 mg/kg/injection, schedule: Q01DX001 (ip), vehicle: saline with Tween-80 94 % of control | dose: 400.0 mg/kg/injection, schedule: Q01DX001 (ip), vehicle: saline with Tween-80 94 % of control

CCCC(CN(C)C)C(=O)c1ccccc1 (centres undefined)
inactive: dose: 25.0 mg/kg/injection, schedule: Q01DX009 (ip), vehicle: saline with Tween-80 93 % of control | dose: 25.0 mg/kg/injection, schedule: Q04DX002 (ip), vehicle: saline with Tween-80 100 % of control | dose: 50.0 mg/kg/injection, schedule: Q01DX009 (ip), vehicle: saline with Tween-80 89 % of control | dose: 50.0 mg/kg/injection, schedule: Q04DX002 (ip), vehicle: saline with Tween-80 93 % of control | [11] 96 % of control | dose: 100.0 mg/kg/injection, schedule: Q04DX002 (ip), vehicle: saline with Tween-80 93 % of control

C1CCC2C(C1)CCC1CCCCC12 (centres undefined)
inactive: dose: 62.5 mg/kg/injection, schedule: Q01DX001 (ip), vehicle: carboxymethylcellulose (CMC) 100 % of control | dose: 125.0 mg/kg/injection, schedule: Q01DX001 (ip), vehicle: carboxymethylcellulose (CMC) 100 % of control | dose: 250.0 mg/kg/injection, schedule: Q01DX001 (ip), vehicle: carboxymethylcellulose (CMC) 96 % of control | dose: 500.0 mg/kg/injection, schedule: Q01DX001 (ip), vehicle: carboxymethylcellulose (CMC) 102 % of control

COc1cc(C2c3c(cc(OC)c(O)c3OC)C=C(C(=O)O)C2CO)cc(OC)c1O (centres undefined)
inactive: dose: 50.0 mg/kg/injection, schedule: Q01DX001 (ip), vehicle: carboxymethylcellulose (CMC) 94 % of control | [3] 102 % of control | [4] 96 % of control | dose: 400.0 mg/kg/injection, schedule: Q01DX001 (ip), vehicle: carboxymethylcellulose (CMC) 91 % of control

CC(=O)OCCC/C(=C/c1ccc2c(c1)OCO2)[N+](=O)[O-]
inactive: dose: 100.0 mg/kg/injection, schedule: Q01DX001 (ip), vehicle: saline 104 % of control | dose: 200.0 mg/kg/injection, schedule: Q01DX001 (ip), vehicle: saline 101 % of control | dose: 400.0 mg/kg/injection, schedule: Q01DX001 (ip), vehicle: saline 98 % of control

NC(=O)C1CCC(=O)N1 (centres undefined)
inactive: [12] 93 % of control | dose: 100.0 mg/kg/injection, schedule: Q04DX002 (ip), vehicle: saline 104 % of control | [13] 101 % of control | dose: 200.0 mg/kg/injection, schedule: Q04DX002 (ip), vehicle: saline 98 % of control | dose: 400.0 mg/kg/injection, schedule: Q01DX009 (ip), vehicle: saline 93 % of control | dose: 400.0 mg/kg/injection, schedule: Q04DX002 (ip), vehicle: saline 91 % of control

C#CC1(O)CCCCC1
inactive: [14] 108 % of control | [15] 94 % of control | [16] 97 % of control | [17] 100 % of control | [18] 97 % of control | [19] 96 % of control

O=C(Cc1cccc2ccccc12)N/N=C/c1ccc(Cl)cc1Cl
inactive: [11] 96 % of control | dose: 200.0 mg/kg/injection, schedule: Q01DX009 (ip), vehicle: saline with Tween-80 93 % of control

COc1ccccc1-n1c(=O)c(N=Nc2ccc(Cl)cc2)c(O)n(-c2ccccc2Cl)c1=S
inactive: [8] 94 % of control | [9] 101 % of control | [10] 92 % of control

C[N+](C)(C)CCOC(=O)c1cccc(CBr)c1
inactive: [20] 92 % of control | [12] 95 % of control | [5] 98 % of control | [13] 93 % of control | [6] 105 % of control

O=c1cc(Br)c(=O)c2cc(Br)cc(Br)c2[nH]1
inactive: [1] 95 % of control | [2] 98 % of control | [14] 90 % of control | [15] 98 % of control | [16] 87 % of control | [17] 106 % of control | [18] 89 % of control | [19] 88 % of control

CC1([N+](=O)[O-])COCOC1
inactive: [5] 103 % of control | [6] 95 % of control | [7] 94 % of control

CC(C)(S)CNCCSC(=O)c1ccccc1
inactive: dose: 100.0 mg/kg/injection, schedule: Q04DX003 (ip), vehicle: saline with Tween-80 102 % of control | dose: 200.0 mg/kg/injection, schedule: Q04DX003 (ip), vehicle: saline with Tween-80 100 % of control | dose: 400.0 mg/kg/injection, schedule: Q04DX003 (ip), vehicle: saline with Tween-80 92 % of control

CSc1ncnc2c1ncn2C1OC(COC(N)=O)C(O)C1O (centres undefined)
inactive: dose: 100.0 mg/kg/injection, schedule: Q01DX005 (ip), vehicle: saline 107 % of control | dose: 200.0 mg/kg/injection, schedule: Q01DX005 (ip), vehicle: saline 114 % of control

CCOC(=O)C(C)(C)CSC(C)(C)C(=O)OCC
inactive: [5] 110 % of control | [6] 101 % of control | [7] 110 % of control

NCCCn1cnc2c(N)ncnc21
inactive: [12] 94 % of control | [5] 91 % of control | [6] 98 % of control

CCOC(=O)/C(O)=C\c1cc(Cl)nnc1Cl
inactive: dose: 162.5 mg/kg/injection, schedule: Q04DX002 (ip), vehicle: Klucel (hydroxypropylcellulose) (HPC) 100 % of control | dose: 325.0 mg/kg/injection, schedule: Q04DX002 (ip), vehicle: Klucel (hydroxypropylcellulose) (HPC) 95 % of control

CC(C)(N)CNC(C)(C)CO
inactive: [20] 102 % of control | [12] 102 % of control

O=S(=O)(CS(=O)(=O)c1ccccc1)c1ccccc1
inactive: dose: 75.0 mg/kg/injection, schedule: Q01DX009 (ip), vehicle: Klucel (hydroxypropylcellulose) (HPC) 102 % of control | dose: 150.0 mg/kg/injection, schedule: Q01DX009 (ip), vehicle: Klucel (hydroxypropylcellulose) (HPC) 98 % of control | dose: 300.0 mg/kg/injection, schedule: Q01DX009 (ip), vehicle: Klucel (hydroxypropylcellulose) (HPC) 95 % of control
